# From ChEMBL document CHEMBL1201862, “PubChem BioAssay data set” (2004)
#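 Values below derive from 48-hour exposures of cells grown in 96-well plates, with endpoints linearly interpolated between the two concentrations bracketing the appropriate inhibition level. GI50 = concentration required for 50% inhibition of growth.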 Active and inactive are the calls of the source. Rule as the data show it: active = GI50 up to about 1.1 µM and inactive = higher.
# Experiments:
# Experiment in all cases: NCI anticancer screen, dose series, 48 h
# OVCAR-3 = test system: OVCAR-3
# TK-10 = test system: TK-10
# UACC-62 = test system: UACC-62
# LOX IMVI = test system: LOX IMVI
# OVCAR-8 = test system: OVCAR-8
# SN12C = test system: SN12C
# HCC 2998 = test system: HCC 2998
# HL-60 = test system: HL-60
# M14 = test system: M14
# ACHN = test system: ACHN
# SF-539 = test system: SF-539
# DMS-273 = test system: DMS-273
# NCI-H23 = test system: NCI-H23
# K562 = test system: K562
# CCRF-CEM = test system: CCRF-CEM
# HT-29 = test system: HT-29
# LXFL 529 = test system: LXFL 529
# SR = test system: SR
# U-251 = test system: U-251
# SK-MEL-5 = test system: SK-MEL-5
# HCT-116 = test system: HCT-116
# RXF 393 = test system: RXF 393
# SF-268 = test system: SF-268
# UACC-257 = test system: UACC-257
# COLO 205 = test system: COLO 205
# HOP-62 = test system: HOP-62
# SNB-75 = test system: SNB-75
# SK-MEL-28 = test system: SK-MEL-28
# NCI-H460 = test system: NCI-H460
# M19-MEL = test system: M19-MEL
# HCT-15 = test system: HCT-15
# SNB-19 = test system: SNB-19
# HOP-18 = test system: HOP-18
# EKVX = test system: EKVX
# A549 = test system: A549
# OVCAR-4 = test system: OVCAR-4
# SK-MEL-2 = test system: SK-MEL-2
# DMS-114 = test system: DMS-114
# HOP-92 = test system: HOP-92
# SNB-78 = test system: SNB-78
# MOLT-4 = test system: MOLT-4
# KM12 = test system: KM12
# UO-31 = test system: UO-31
# SW-620 = test system: SW-620
# RPMI-8226 = test system: RPMI-8226
# IGROV-1 = test system: IGROV-1
# OVCAR-5 = test system: OVCAR-5
# KM-20L2 = test system: KM-20L2
# NCI-H522 = test system: NCI-H522
# DLD-1 = test system: DLD-1
# CAKI-1 = test system: CAKI-1
# SF-295 = test system: SF-295
# SK-OV-3 = test system: SK-OV-3
# NCI-H226 = test system: NCI-H226
# Malme-3M = test system: Malme-3M
# 786-0 = test system: 786-0
compound,measurement,setting,value
CCNC(=S)NNC(=O)c1nsc2ccccc12,GI50,OVCAR-3,49.1 µM (inactive)
same,GI50,TK-10,> 100 µM (inactive)
same,GI50,UACC-62,63.8 µM (inactive)
same,GI50,LOX IMVI,64.9 µM (inactive)
same,GI50,OVCAR-8,> 100 µM (inactive)
same,GI50,SN12C,55.1 µM (inactive)
same,GI50,HCC 2998,> 100 µM (inactive)
same,GI50,HL-60,59.4 µM (inactive)
same,GI50,M14,> 100 µM (inactive)
same,GI50,ACHN,> 100 µM (inactive)
same,GI50,SF-539,> 100 µM (inactive)
same,GI50,DMS-273,97.5 µM (inactive)
same,GI50,NCI-H23,> 100 µM (inactive)
same,GI50,K562,64.9 µM (inactive)
same,GI50,CCRF-CEM,31 µM (inactive)
same,GI50,HT-29,72.1 µM (inactive)
same,GI50,LXFL 529,53.3 µM (inactive)
same,GI50,SR,64 µM (inactive)
same,GI50,U-251,94.2 µM (inactive)
same,GI50,SK-MEL-5,64.6 µM (inactive)
same,GI50,HCT-116,96.8 µM (inactive)
same,GI50,RXF 393,44.6 µM (inactive)
same,GI50,SF-268,81.5 µM (inactive)
same,GI50,UACC-257,> 100 µM (inactive)
same,GI50,COLO 205,> 100 µM (inactive)
same,GI50,HOP-62,73.6 µM (inactive)
same,GI50,SNB-75,34.5 µM (inactive)
same,GI50,SK-MEL-28,> 100 µM (inactive)
same,GI50,NCI-H460,50.1 µM (inactive)
same,GI50,M19-MEL,97.3 µM (inactive)
same,GI50,HCT-15,38.2 µM
same,GI50,SNB-19,> 100 µM (inactive)
same,GI50,HOP-18,23.1 µM (inactive)
same,GI50,EKVX,18.7 µM (inactive)
same,GI50,A549,> 100 µM (inactive)
same,GI50,OVCAR-4,> 100 µM (inactive)
same,GI50,SK-MEL-2,2.88 µM (inactive)
same,GI50,DMS-114,95.5 µM (inactive)
same,GI50,HOP-92,85.7 µM (inactive)
same,GI50,SNB-78,> 100 µM (inactive)
same,GI50,MOLT-4,50.9 µM (inactive)
same,GI50,KM12,67.1 µM (inactive)
same,GI50,UO-31,52.8 µM (inactive)
same,GI50,SW-620,> 100 µM (inactive)
same,GI50,RPMI-8226,51.8 µM (inactive)
same,GI50,IGROV-1,> 100 µM (inactive)
same,GI50,OVCAR-5,> 100 µM (inactive)
same,GI50,KM-20L2,64.9 µM (inactive)
Cc1cc(O)nc(NNC(C#N)c2ccc(N(C)C)cc2)n1 (centres undefined),GI50,OVCAR-3,> 100 µM (inactive)
same,GI50,TK-10,> 100 µM (inactive)
same,GI50,UACC-62,> 100 µM (inactive)
same,GI50,LOX IMVI,> 100 µM (inactive)
same,GI50,NCI-H522,> 100 µM (inactive)
same,GI50,OVCAR-8,> 100 µM (inactive)
same,GI50,SN12C,> 100 µM (inactive)
same,GI50,HL-60,> 100 µM (inactive)
same,GI50,M14,> 100 µM (inactive)
same,GI50,DLD-1,> 100 µM (inactive)
same,GI50,CAKI-1,> 100 µM (inactive)
same,GI50,ACHN,> 100 µM (inactive)
same,GI50,SF-539,> 100 µM (inactive)
same,GI50,SF-295,> 100 µM (inactive)
same,GI50,DMS-273,> 100 µM (inactive)
same,GI50,NCI-H23,> 100 µM (inactive)
same,GI50,K562,> 100 µM (inactive)
same,GI50,CCRF-CEM,> 100 µM (inactive)
same,GI50,HT-29,> 100 µM (inactive)
same,GI50,SR,92.9 µM (inactive)
same,GI50,U-251,> 100 µM (inactive)
same,GI50,SK-MEL-5,> 100 µM (inactive)
same,GI50,SK-OV-3,> 100 µM (inactive)
same,GI50,HCT-116,> 100 µM (inactive)
same,GI50,RXF 393,> 100 µM (inactive)
same,GI50,NCI-H226,> 100 µM (inactive)
same,GI50,Malme-3M,> 100 µM (inactive)
same,GI50,SF-268,> 100 µM (inactive)
same,GI50,UACC-257,> 100 µM (inactive)
same,GI50,COLO 205,> 100 µM (inactive)
same,GI50,HOP-62,> 100 µM (inactive)
same,GI50,SNB-75,> 100 µM (inactive)
same,GI50,SK-MEL-28,> 100 µM (inactive)
same,GI50,NCI-H460,> 100 µM (inactive)
same,GI50,M19-MEL,> 100 µM (inactive)
same,GI50,HCT-15,> 100 µM
same,GI50,HOP-18,> 100 µM (inactive)
same,GI50,A549,> 100 µM (inactive)
same,GI50,OVCAR-4,> 100 µM (inactive)
same,GI50,SK-MEL-2,> 100 µM (inactive)
same,GI50,DMS-114,> 100 µM (inactive)
same,GI50,HOP-92,> 100 µM (inactive)
same,GI50,SNB-78,> 100 µM (inactive)
same,GI50,KM12,> 100 µM (inactive)
same,GI50,786-0,> 100 µM (inactive)
same,GI50,UO-31,> 100 µM (inactive)
same,GI50,SW-620,> 100 µM (inactive)
same,GI50,RPMI-8226,> 100 µM (inactive)
same,GI50,IGROV-1,> 100 µM (inactive)
same,GI50,OVCAR-5,> 100 µM (inactive)
same,GI50,KM-20L2,> 100 µM (inactive)
